According to US20220273683A1, “BORON-CONTAINING SMALL MOLECULES” (Bill & Melinda Gates Foundation, priority 2016, published 2022):
Converted amounts (≈) assume the structure as drawn.

Tests used:
[1] = system: Staphylococcus aureus, MRSA (ATCC 33591); experiment: Antibacterial MIC assay (microbroth dilution, CLSI); assay type: cell-based; details: 35° C., 16-20 hours
Text: (§1) All MIC testing of bacteria followed the Clinical and Laboratory Standards Institute (CLSI) guidelines for antimicrobial testing of aerobic bacteria (Methods for Dilution Antimicrobial Susceptibility Tests for Bacteria that Grow Aerobically; Approved Standard—Tenth Edition, M07-A10; Performance Standards for Antimicrobial Susceptibility Testing; Twenty-fifth Informational Supplement, M100-S25).
(§2) Briefly, the microbroth dilution MIC method was used to quantitatively measure the in vitro antibacterial activity of a compound against a given bacterial isolate. The following bacterial strains were evaluated: Staphylococcus aureus, MRSA (ATCC 33591) and Streptococcus pneumoniae (ATCC 49619). Bacteria were grown in cation-adjusted Mueller-Hinton broth, with additions as required per species growth requirements (e.g. 3% lysed horse blood for fastidious organisms such as S. pneumoniae). A direct colony suspension in saline was prepared from colonies on an overnight agar plate to achieve a turbidity equivalent to 0.5 McFarland standard, which was subsequently diluted into the assay plate to achieve 5×10^5 CFU/mL. Assays plates were prepared by 2-fold dilution of compound across the plate and included a positive growth control.

[2] = system: Streptococcus pneumoniae (ATCC 49619); experiment: as above; assay type: cell-based; details: 35° C., 16-20 hours; for MIC Streptococcus pneumoniae (ATCC 49619): 3% lysed horse blood
Text: as §1, §2

| SMILES | MIC Staphylococcus aureus, MRSA (ATCC 33591) [1] | MIC Streptococcus pneumoniae (ATCC 49619) [2] | MIC ([1]; Staphylococcus aureus) | MIC ([2]; Streptococcus pneumoniae, ATCC49619, 3% lysed horse blood) |
| --- | --- | --- | --- | --- |
| C[C@@H]1CC[C@@]23CCC(=O)[C@H]2[C@]1(C)[C@H](OC(=O)COc1ccc2c(c1F)B(O)OC2)C[C@@](C)(CCC(=O)N1CCC(O)C1)[C@@H](O)[C@@H]3C (stereo partly drawn) [Compound 7, (3aR,4R,5R,7R,8S,9R,9aS,12R)-8-hydroxy-7-(3-(3-hydroxypyrrolidin-1-yl)-3-oxopropyl)-4,7,9,12-tetramethyl-3-oxodecahydro-4,9a-propanocyclopenta[8]annulen-5-yl2-((7-fluoro-1-hydroxy-1,3-dihydrobenzo[c][1,2]oxaborol-6-yl)oxy)acetate] | C (4-32 is C) | B (0.5-2 is B) |  |  |
| C[C@@H]1CC[C@@]23CCC(=O)[C@H]2[C@]1(C)[C@H](OC(=O)COc1ccc2c(c1F)B(O)OC2)C[C@@](C)(CCC(=O)N1CC[C@H](O)C1)[C@@H](O)[C@@H]3C [Compound 8, (3aR,4R,5R,7R,8S,9R,9aS,12R)-8-hydroxy-7-(3-((S)-3-hydroxypyrrolidin-1-yl)-3-oxopropyl)-4,7,9,12-tetramethyl-3-oxodecahydro-4,9a-propanocyclopenta[8]annulen-5-yl2-((7-fluoro-1-hydroxy-1,3-dihydrobenzo[c][1,2]oxaborol-6-yl)oxy)acetate] | C (4-32 is C) | B (0.5-2 is B) |  |  |
| C[C@@H]1CC[C@@]23CCC(=O)[C@H]2[C@]1(C)[C@H](OC(=O)COc1ccc2c(c1F)B(O)OC2)C[C@@]1(C)CC(O)O[C@H]1[C@@H]3C (stereo partly drawn) [Compound 9, (3aS,5R,6R,6aR,9aS,10R,10aS,13R)-2-hydroxy-3a,6,10,13-tetramethyl-7-oxododecahydro-6,9a-propanocyclopenta[6,7]cycloocta[1,2-b]furan-5-yl2-((7-fluoro-1-hydroxy-1,3-dihydrobenzo[c][1,2]oxaborol-6-yl)oxy)acetate] | C (4-32 is C) | C (4-32 is C) |  |  |
| C[C@@H]1CC[C@@]23CCC(=O)[C@H]2[C@]1(C)[C@H](OC(=O)COc1ccc2c(c1F)B(O)OC2)C[C@@](C)(Cc1ccccc1)[C@@H](O)[C@@H]3C [Compound 10, (3aR,4R,5R,7R,8S,9R,9aS,12R)-7-benzyl-8-hydroxy-4,7,9,12-tetramethyl-3-oxodecahydro-4,9a-propanocyclopenta[8]annulen-5-yl2-((7-fluoro-1-hydroxy-1,3-dihydrobenzo[c][1,2]oxaborol-6-yl)oxy)acetate] | A (MIC of ≤0.25 is A) | B (0.5-2 is B) |  |  |
| C[C@@H]1CC[C@@]23CCC(=O)[C@H]2[C@]1(C)[C@H](OC(=O)COc1ccc2c(c1F)B(O)OC2)C[C@@](C)(CCl)[C@@H](O)[C@@H]3C [Compound 11, (3aR,4R,5R,7R,8S,9R,9aS,12R)-7-(chloromethyl)-8-hydroxy-4,7,9,12-tetramethyl-3-oxodecahydro-4,9a-propanocyclopenta[8]annulen-5-yl2-((7-fluoro-1-hydroxy-1,3-dihydrobenzo[c][1,2]oxaborol-6-yl)oxy)acetate] | A (MIC of ≤0.25 is A) | B (0.5-2 is B) |  |  |
| C[C@@H]1CC[C@@]23CCC(=O)[C@H]2[C@]1(C)[C@H](OC(=O)COc1ccc2c(c1F)B(O)OC2)C[C@@](C)(/C=C/C(N)=O)[C@@H](O)[C@@H]3C [Compound 14, (3aR,4R,5R,7S,8S,9R,9aS,12R)-7-((E)-3-amino-3-oxoprop-1-en-1-yl)-8-hydroxy-4,7,9,12-tetramethyl-3-oxodecahydro-4,9a-propanocyclopenta[8]annulen-5-yl2-((7-fluoro-1-hydroxy-1,3-dihydrobenzo[c][1,2]oxaborol-6-yl)oxy)acetate] | B (0.5-2 is B) | B (0.5-2 is B) |  |  |
| CNC(=O)/C=C/[C@]1(C)C[C@@H](OC(=O)COc2ccc3c(c2F)B(O)OC3)[C@]2(C)[C@H](C)CC[C@]3(CCC(=O)[C@H]32)[C@@H](C)[C@@H]1O [Compound 15, (3aR,4R,5R,7S,8S,9R,9aS,12R)-8-hydroxy-4,7,9,12-tetramethyl-7-((E)-3-(methylamino)-3-oxoprop-1-en-1-yl)-3-oxodecahydro-4,9a-propanocyclopenta[8]annulen-5-yl2-((7-fluoro-1-hydroxy-1,3-dihydrobenzo[c][1,2]oxaborol-6-yl)oxy)acetate] | B (0.5-2 is B) | B (0.5-2 is B) |  |  |
| CONC(=O)/C=C/[C@]1(C)C[C@@H](OC(=O)COc2ccc3c(c2F)B(O)OC3)[C@]2(C)[C@H](C)CC[C@]3(CCC(=O)[C@H]32)[C@@H](C)[C@@H]1O [Compound 16, (3aR,4R,5R,7S,8S,9R,9aS,12R)-8-hydroxy-7-((E)-3-(methoxyamino)-3-oxoprop-1-en-1-yl)-4,7,9,12-tetramethyl-3-oxodecahydro-4,9a-propanocyclopenta[8]annulen-5-yl2-((7-fluoro-1-hydroxy-1,3-dihydrobenzo[c][1,2]oxaborol-6-yl)oxy)acetate] | C (4-32 is C) | B (0.5-2 is B) |  |  |
| C[C@@H]1CC[C@@]23CCC(=O)[C@H]2[C@]1(C)[C@H](OC(=O)COc1ccc2c(c1F)B(O)OC2)C[C@@](C)(/C=C/C(=O)NNC(=O)OC(C)(C)C)[C@@H](O)[C@@H]3C [Compound 17, tert-butyl 2-((E)-3-((3aR,4R,5R,7S,8S,9R,9aS,12R)-5-(2-((7-fluoro-1-hydroxy-1,3-dihydrobenzo[c][1,2]oxaborol-6-yl)oxy)acetoxy)-8-hydroxy-4,7,9,12-tetramethyl-3-oxodecahydro-4,9a-propanocyclopenta[8]annulen-7-yl)acryloyl)hydrazine-1-carboxylate] |  |  | 4 to 32 µg/mL (≈ 5.83 to 46.6 µM) | 0.5 to 2 µg/mL (≈ 0.728 to 2.91 µM) |
| C[C@@H]1CC[C@@]23CCC(=O)[C@H]2[C@]1(C)[C@H](OC(=O)COc1ccc2c(c1F)B(O)OC2)C[C@@](C)(/C=C/C(=O)NN)[C@@H](O)[C@@H]3C [Compound 18, (3aR,4R,5R,7S,8S,9R,9aS,12R)-7-((E)-3-hydrazinyl-3-oxoprop-1-en-1-yl)-8-hydroxy-4,7,9,12-tetramethyl-3-oxodecahydro-4,9a-propanocyclopenta[8]annulen-5-yl2-((7-fluoro-1-hydroxy-1,3-dihydrobenzo[c][1,2]oxaborol-6-yl)oxy)acetate] | C (4-32 is C) | B (0.5-2 is B) |  |  |
| CC[C@]1(C)C[C@@H](OC(=O)COc2ccc3c(c2F)B(O)OC3)[C@]2(C)[C@H](C)CC[C@]3(CCC(=O)[C@H]32)[C@@H](C)[C@@H]1O [Compound 19, (3aR,4R,5R,7R,8S,9R,9aS,12R)-7-ethyl-8-hydroxy-4,7,9,12-tetramethyl-3-oxodecahydro-4,9a-propanocyclopenta[8]annulen-5-yl2-((7-fluoro-1-hydroxy-1,3-dihydrobenzo[c][1,2]oxaborol-6-yl)oxy)acetate] | A (MIC of ≤0.25 is A) | B (0.5-2 is B) |  |  |
| C=CC[C@]1(C)C[C@@H](OC(=O)COc2ccc3c(c2F)B(O)OC3)[C@]2(C)[C@H](C)CC[C@]3(CCC(=O)[C@H]32)[C@@H](C)[C@@H]1O [Compound 21, (3aR,4R,5R,7R,8S,9R,9aS,12R)-7-allyl-8-hydroxy-4,7,9,12-tetramethyl-3-oxodecahydro-4,9a-propanocyclopenta[8]annulen-5-yl2-((7-fluoro-1-hydroxy-1,3-dihydrobenzo[c][1,2]oxaborol-6-yl)oxy)acetate] | A (MIC of ≤0.25 is A) | B (0.5-2 is B) |  |  |
| C#CC[C@]1(C)C[C@@H](OC(=O)COc2ccc3c(c2F)B(O)OC3)[C@]2(C)[C@H](C)CC[C@]3(CCC(=O)[C@H]32)[C@@H](C)[C@@H]1O [Compound 22, (3aR,4R,5R,7R,8S,9R,9aS,12R)-8-hydroxy-4,7,9,12-tetramethyl-3-oxo-7-(prop-2-yn-1-yl)decahydro-4,9a-propanocyclopenta[8]annulen-5-yl2-((7-fluoro-1-hydroxy-1,3-dihydrobenzo[c][1,2]oxaborol-6-yl)oxy)acetate] | A (MIC of ≤0.25 is A) | B (0.5-2 is B) |  |  |
| C[C@@H]1CC[C@@]23CCC(=O)[C@H]2[C@]1(C)[C@H](OC(=O)COc1ccc2c(c1F)B(O)OC2)C[C@@](C)(CO)[C@@H](O)[C@@H]3C [Compound 23, (3aR,4R,5R,7S,8S,9R,9aS,12R)-8-hydroxy-7-(hydroxymethyl)-4,7,9,12-tetramethyl-3-oxodecahydro-4,9a-propanocyclopenta[8]annulen-5-yl2-((7-fluoro-1-hydroxy-1,3-dihydrobenzo[c][1,2]oxaborol-6-yl)oxy)acetate] | A (MIC of ≤0.25 is A) | C (4-32 is C) |  |  |
| COC[C@]1(C)C[C@@H](OC(=O)COc2ccc3c(c2F)B(O)OC3)[C@]2(C)[C@H](C)CC[C@]3(CCC(=O)[C@H]32)[C@@H](C)[C@@H]1O [Compound 24, (3aR,4R,5R,7S,8S,9R,9aS,12R)-8-hydroxy-7-(methoxymethyl)-4,7,9,12-tetramethyl-3-oxodecahydro-4,9a-propanocyclopenta[8]annulen-5-yl2-((7-fluoro-1-hydroxy-1,3-dihydrobenzo[c][1,2]oxaborol-6-yl)oxy)acetate] | A (MIC of ≤0.25 is A) | C (4-32 is C) |  |  |
